As usually defined, the IC50 is the midpoint of a concentration-inhibition curve. Low values mean greater potency in that assay, high ones weaker potency in that assay.

The target in the assay is MYT1 protein (Homo sapiens (Human), UniProt Q99640). The experiment in a line: Test for binding to ATP binding site of MYT1 (Kinase Tracer 178 / Eu-Anti-GST antibody TR-FRET). The conditions noted are these: ATP binding site of MYT1, 30 minutes at room temperature. Background: Time-resolved FRET reads energy transfer from a long-lived donor to a nearby acceptor.
Chain of MYT1 protein (Q99640 whole entry): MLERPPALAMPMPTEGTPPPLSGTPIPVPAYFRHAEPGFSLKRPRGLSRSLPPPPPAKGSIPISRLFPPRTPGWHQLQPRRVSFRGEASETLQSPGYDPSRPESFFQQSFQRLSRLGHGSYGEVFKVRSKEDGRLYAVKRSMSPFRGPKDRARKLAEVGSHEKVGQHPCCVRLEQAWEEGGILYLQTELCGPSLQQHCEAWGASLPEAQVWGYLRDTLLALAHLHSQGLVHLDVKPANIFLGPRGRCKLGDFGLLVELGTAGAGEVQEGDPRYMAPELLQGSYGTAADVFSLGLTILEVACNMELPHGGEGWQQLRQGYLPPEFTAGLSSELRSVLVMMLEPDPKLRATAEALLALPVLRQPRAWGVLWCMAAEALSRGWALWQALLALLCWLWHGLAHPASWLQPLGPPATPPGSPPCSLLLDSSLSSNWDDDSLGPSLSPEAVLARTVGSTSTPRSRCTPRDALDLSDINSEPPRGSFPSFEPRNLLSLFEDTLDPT

In the case of `Nc1c(-c2ccc(F)c3[nH]ncc23)c2cc(C3CC4(C3)CC(F)(F)C4)c3ncccc3c2[nH]c1=O` [Compound C166, 3-Amino-6-(2,2-difluorospiro[3,3]heptan-6-yl)-4-(7-fluoro-1H-indazol-4-yl)-1H-1,7-phenanthrolin-2-one], the half-inhibitory concentration (IC50) stood at 2.9 nM. That is a single-digit nanomolar value. For the molecule `N#CCOc1cc2c(-c3ccc(F)c4[nH]ncc34)c(N)c(=O)[nH]c2c2cccnc12` [Compound C62, 2-[[3-Amino-4-(7-fluoro-1H-indazol-4-yl)-2-oxo-1H-1,7-phenanthrolin-6-yl]oxy]acetonitrile], the half-maximal inhibitory concentration (IC50) worked out at 1.6 nM. `CP(C)(=O)c1cc2c(-c3ccc(F)c4[nH]ncc34)c(N)c(=O)[nH]c2c2cccnc12` [Compound C110, 3-Amino-6-dimethylphosphoryl-4-(7-fluoro-1H-indazol-4-yl)-1H-1,7-phenanthrolin-2-one] showed a half-inhibitory concentration (IC50) of 14 nM. The result for `Nc1c(-c2ccc(F)c3[nH]ncc23)c2cc(Br)c3ccsc3c2[nH]c1=O` [Compound L1, 7-Amino-4-bromo-6-(7-fluoro-1H-indazol-4-yl)-9H-thieno[3,2-h]quinolin-8-one] reads 3 nM.

The molecule `Cc1nccc2c1c(Br)cc1c(-c3ccc(F)c4[nH]ncc34)c(N)c(=O)[nH]c12` [Compound P2, 3-Amino-6-bromo-4-(7-fluoro-1H-indazol-4-yl)-7-methyl-1H-1,8-phenanthrolin-2-one] returned an IC50 of 13 nM. This IC50 lies about 4.3-fold higher than the previous one. `Nc1c(-c2ccc(F)c3[nH]ncc23)c2cc(OCCC(F)F)c3nccnc3c2[nH]c1=O` [Compound G18, 8-Amino-5-(3,3-difluoropropoxy)-7-(7-fluoro-1H-indazol-4-yl)-10H-pyrido[2,3-f]quinoxalin-9-one] had an IC50 of 0.79 nM. Compared with the last molecule, the IC50 is about 16-fold lower.

Consider `Nc1c(-c2ccc(F)c3[nH]ncc23)c2cc(N3CCS(=O)(=O)CC3)c3ncccc3c2[nH]c1=O` [Compound C124, 3-Amino-6-(1,1-dioxo-1,4-thiazinan-4-yl)-4-(7-fluoro-1H-indazol-4-yl)-1H-1,7-phenanthrolin-2-one], for which the IC50 is 3.4 nM. In turn, `Nc1c(-c2ccc(F)c3[nH]ncc23)c2cc(OCCOC(F)(F)F)c3ncccc3c2[nH]c1=O` [Compound C43, 3-Amino-4-(7-fluoro-1H-indazol-4-yl)-6-[2-(trifluoromethoxy)ethoxy]-1H-1,7-phenanthrolin-2-one] had an IC50 of 19 nM. As for `Nc1c(-c2ccc(F)c3[nH]ncc23)c2cc(N3CC4CC(C3)O4)c3ncccc3c2[nH]c1=O` [Compound C128, 3-Amino-4-(7-fluoro-1H-indazol-4-yl)-6-(6-oxa-3-azabicyclo[3.1.1]heptan-3-yl)-1H-1,7-phenanthrolin-2-one], the IC50 amounted to 5.8 nM. Regarding `N#CC1CC(c2cc3c(-c4ccc(F)c5[nH]ncc45)c(N)c(=O)[nH]c3c3cccnc23)C1` (stereo not shown) [Compound C176, 3-[3-Amino-4-(7-fluoro-1H-indazol-4-yl)-2-oxo-1H-1,7-phenanthrolin-6-yl]cyclobutane-1-carbonitrile], the IC50 was 2.1 nM. On to `Nc1c(-c2ccc(Cl)c3[nH]ncc23)c2cc(C3CCNCC3)ccc2[nH]c1=O` [Compound A33, 3-Amino-4-(7-chloro-1H-indazol-4-yl)-6-piperidin-4-yl-1H-quinolin-2-one; 2,2,2-trifluoroacetate], for which the concentration for half-maximal inhibition (IC50) is 13 nM. Compared with the last molecule, the IC50 is about 6.2-fold higher. With `CS(=O)(=O)Nc1cc2c(-c3ccc(F)c4[nH]ncc34)c(N)c(=O)[nH]c2c2ncccc12` [Compound D16, N-[8-Amino-7-(7-fluoro-1H-indazol-4-yl)-9-oxo-10H-1,10-phenanthroline-5-yl]methanesulfonamide], the IC50 came out at 2.7 nM. In the case of `Nc1c(-c2cc(F)c(F)c3[nH]ncc23)c2cc(Cl)c3ncccc3c2[nH]c1=O` [Compound C198, 3-Amino-6-chloro-4-(6,7-difluoro-1H-indazol-4-yl)-1H-1,7-phenanthrolin-2-one], the IC50 was 3.1 nM. `Nc1c(-c2ccc(Cl)c3[nH]ncc23)c2cc(C3CCC3)c3ccccc3c2[nH]c1=O` [Compound B39, 3-Amino-4-(7-chloro-1H-indazol-4-yl)-6-cyclobutyl-1H-benzo[h]quinolin-2-one]: the IC50 stood at 10 nM.

`Nc1c(-c2ccc(F)c3[nH]ncc23)c2cc(Br)c3ccccc3c2[nH]c1=O` [Compound B21, 3-Amino-6-bromo-4-(7-fluoro-1H-indazol-4-yl)-1H-benzo[h]quinolin-2-one] registered an IC50 of 20 nM.

Turning to `CC(=O)c1ccc2[nH]c(=O)c(N)c(-c3ccc(Cl)c4[nH]ncc34)c2c1` [Compound A31, 6-Acetyl-3-amino-4-(7-chloro-1H-indazol-4-yl)-1H-quinolin-2-one], the IC50 was determined as 7.6 nM. Take `Cc1cc2c(-c3ccc(F)c4[nH]ncc34)c(N)c(=O)[nH]c2c2ncn(C)c12` [Compound M2, 7-Amino-6-(7-fluoro-1H-indazol-4-yl)-3,4-dimethyl-9H-imidazo[4,5-h]quinolin-8-one]: the IC50 turned out to be 14 nM. `N#Cc1cc2c(-c3ccc(Cl)c4[nH]ncc34)c(N)c(=O)[nH]c2c2ccccc12` [Compound B41, 3-Amino-4-(7-chloro-1H-indazol-4-yl)-2-oxo-1H-benzo[h]quinoline-6-carbonitrile] came in with an IC50 of 14 nM. Take `CC(=O)Nc1cc2c(-c3ccc(F)c4[nH]ncc34)c(N)c(=O)[nH]c2c2nccnc12` [Compound G8, N-[8-amino-7-(7-fluoro-1H-indazol-4-yl)-9-oxo-10H-pyrido[2,3-f]quinoxalin-5-yl]acetamide]: the IC50 was 1.4 nM. Compared with the last molecule, the IC50 is about 10-fold lower. For `COc1cc2c(-c3ccc(F)c4[nH]ncc34)c(N)c(=O)[nH]c2c2ccc(=O)[nH]c12` [Compound T4, 3-Amino-4-(7-fluoro-1H-indazol-4-yl)-6-methoxy-1,7-dihydro-1,7-phenanthroline-2,8-dione], the IC50 stood at 3.2 nM. Molecule `CC(C)Oc1cc2c(-c3ccc(Cl)c4[nH]ncc34)c(N)c(=O)[nH]c2cc1Cl` [Compound A8, 3-Amino-7-chloro-4-(7-chloro-1H-indazol-4-yl)-6-propan-2-yloxy-1H-quinolin-2-one] registered an IC50 of 23 nM.

As for `Nc1c(-c2cc(F)c(F)c3[nH]ncc23)c2cc(Br)c3ncccc3c2[nH]c1=O` [Compound C66, 3-Amino-6-bromo-4-(6,7-difluoro-1H-indazol-4-yl)-1H-1,7-phenanthrolin-2-one], the IC50 was 4.9 nM.

`CCCc1cc(Cl)cc2c(-c3ccc(Cl)c4[nH]ncc34)c(N)c(=O)[nH]c12` [Compound A22, 3-Amino-6-chloro-4-(7-chloro-1H-indazol-4-yl)-8-propyl-1H-quinolin-2-one] showed an IC50 of 270 nM.

Turning to `Nc1c(-c2cccnc2)c2cc(Cl)ccc2[nH]c1=O` [Compound A45, 3-Amino-6-chloro-4-pyridin-3-yl-1H-quinolin-2-one], the IC50 was 5000 nM. In turn, `Nc1c(-c2ccc(F)c3[nH]ncc23)c2cc(N3CCCCC3)c3ncccc3c2[nH]c1=O` [Compound C125, 3-Amino-4-(7-fluoro-1H-indazol-4-yl)-6-piperidin-1-yl-1H-1,7-phenanthrolin-2-one] came in with an IC50 of 5.9 nM. In turn, `COCCOc1cc2c(-c3ccc(F)c4[nH]ncc34)c(N)c(=O)[nH]c2c2cccnc12` [Compound C14, 3-Amino-4-(7-fluoro-1H-indazol-4-yl)-6-(2-methoxyethoxy)-1H-1,7-phenanthrolin-2-one] returned an IC50 of 2.5 nM. The result for `C[C@@H](F)COc1cc2c(-c3ccc(F)c4[nH]ncc34)c(N)c(=O)[nH]c2c2cccnc12` [Compound C61, (R)-3-amino-4-(7-fluoro-1H-indazol-4-yl)-6-(2-fluoropropoxy)-1,7-phenanthrolin-2(1H)-one] reads 1.7 nM; that for `CCN1CCC(c2cc3c(-c4ccc(F)c5[nH]ncc45)c(N)c(=O)[nH]c3c3ncccc23)CC1` [Compound D26, 3-Amino-6-(1-ethylpiperidin-4-yl)-4-(7-fluoro-1H-indazol-4-yl)-1H-1,10-phenanthrolin-2-one], 3.3 nM; that for `Nc1c(-c2ccc(F)c3[nH]ncc23)c2cc(C3CCC(F)(F)CC3)c3ncccc3c2[nH]c1=O` [Compound C163, 3-Amino-6-(4,4-difluorocyclohexyl)-4-(7-fluoro-1H-indazol-4-yl)-1H-1,7-phenanthrolin-2-one], 24 nM. As for `Nc1c(-c2ccc(Cl)c3[nH]ncc23)c2cc(OCCCF)c(F)cc2[nH]c1=O` [Compound A6, 3-Amino-4-(7-chloro-1H-indazol-4-yl)-7-fluoro-6-(3-fluoropropoxy)-1H-quinolin-2-one], the 50% inhibitory concentration (IC50) turned out to be 3 nM.

`Nc1c(-c2ccc(F)c3[nH]ncc23)c2cc(N3CCC(O)C3)c3ncccc3c2[nH]c1=O` (stereo not shown) [Compound C116, 3-Amino-4-(7-fluoro-1H-indazol-4-yl)-6-(3-hydroxypyrrolidin-1-yl)-1H-1,7-phenanthrolin-2-one] showed an IC50 of 2.7 nM.

In turn, `Cn1c(=O)c(N)c(-c2ccc(F)c3[nH]ncc23)c2cc(Br)c3ccccc3c21` [Compound B33, 3-Amino-6-bromo-4-(7-fluoro-1H-indazol-4-yl)-1-methylbenzo[h]quinolin-2-one] yielded a 50% inhibitory concentration (IC50) of 2600 nM. This IC50 lies about 960-fold higher than the previous one. In turn, `Cn1cnc2c3[nH]c(=O)c(N)c(-c4ccc(F)c5[nH]ncc45)c3ccc21` [Compound M3, 7-Amino-6-(7-fluoro-1H-indazol-4-yl)-3-methyl-9H-imidazo[4,5-h]quinolin-8-one] gave a 50% inhibitory concentration (IC50) of 99 nM.

In turn, `Nc1c(-c2ccc(Cl)c3[nH]ncc23)c2cc(Br)c3ccccc3c2[nH]c1=O` [Compound B36, 3-Amino-6-bromo-4-(7-chloro-1H-indazol-4-yl)-1H-benzo[h]quinolin-2-one] registered a concentration for half-maximal inhibition (IC50) of 14 nM. `Nc1c(-c2ccc(F)c3[nH]ncc23)c2cc(N3CCC(F)(F)C3)c3cccnc3c2[nH]c1=O` [Compound D8, 3-Amino-6-(3,3-difluoropyrrolidin-1-yl)-4-(7-fluoro-1H-indazol-4-yl)-1H-1,10-phenanthrolin-2-one] displayed a concentration for half-maximal inhibition (IC50) of 10 nM. The molecule `CCc1cc2c(-c3ccc(F)c4[nH]ncc34)c(N)c(=O)[nH]c2c2ncccc12` [Compound D5, 3-Amino-6-ethyl-4-(7-fluoro-1H-indazol-4-yl)-1H-1,10-phenanthrolin-2-one] gave an IC50 of 6.4 nM. `CN1CCN(c2cc3c(-c4ccc(F)c5[nH]ncc45)c(N)c(=O)[nH]c3c3ncccc23)CC1` [Compound D6, 3-Amino-4-(7-fluoro-1H-indazol-4-yl)-6-(4-methylpiperazin-1-yl)-1H-1,10-phenanthrolin-2-one] registered a half-maximal inhibitory concentration (IC50) of 2.1 nM.

For the origin of these results see patent publication US20260062412A1, “NITROGEN-CONTAINING HETEROCYCLIC COMPOUND HAVING MYT1 INHIBITORY ACTIVITY” (CHUGAI SEIYAKU KABUSHIKI KAISHA, priority 2023, published 2026).
